Assay results published in US8906935B2, “Thiazolyl- and oxazolyl-isoquinolinones and methods for using them” (priority 2008, dated 2014).
Counter-ions that a name gives are not always drawn.

Biological target: T1, hrPARP-1 (human recombinant) (Homo sapiens, UniProt P09874)
T1 construct: purchased Trevigen
Experiment: Functional assessment of human PARP-1 enzymatic activity
Type: biochemical
Details: 1 U hrPARP-1, 15 μg/mL activated DNA, 5 μM NAD+, 20 min room temperature, fluorescence readout
Protocol: Functional Assessment of Human PARP-1 Enzymatic Activity
hrPARP-1 (human recombinant, Trevigen), Activated DNA (Sigma), 6(5H)-phenanthridinone (PND), (Sigma), NAD+ (Calbiochem), PARP-1 assay buffer (50 mM Tris, 2 mM MgCl2, pH 8.0), 20% acetophenone in EtOH, 2 M KOH 88% formic acid, 110° C. oven, Flexstation Plate Reader.
Compound plates were prepared by making a series of 1:3 dilutions for each tested compound, 10 steps of each at 20 μL in DMSO starting from a concentration of 5 mM. NAD^+ (39 μL of a 6.4 μM solution) were added to each well of a 96-well flat bottom fluorescent assay plate. Test compound (1 μL) was added to each well. To initiate the reaction, 10 μL of PARP (contains 5 U of PARP and 75 μg/mL activated DNA) was added with a final 1 U hrPARP-1, 15 μg/mL activated DNA and 5 μM of NAD^+. The highest concentration used for test compounds was 100 μM. The plates were incubated at room temperature on a shaker, After 20 min, 20 μL of 2 M KOH and 20 μL of 20% acetophenone were added. The plate was incubated 10 min. at 4° C., and 90 μL of 88% formic acid was added. After incubating in a 110° C. oven for 5 min, the plate was cooled to room temperature and read of a Flexstation Plate Reader (excitation at 360 nm, emission at 445 nm).
LSW data analysis software was used to generate PARP-1 IC50s.

T1 sequence (P09874 whole entry): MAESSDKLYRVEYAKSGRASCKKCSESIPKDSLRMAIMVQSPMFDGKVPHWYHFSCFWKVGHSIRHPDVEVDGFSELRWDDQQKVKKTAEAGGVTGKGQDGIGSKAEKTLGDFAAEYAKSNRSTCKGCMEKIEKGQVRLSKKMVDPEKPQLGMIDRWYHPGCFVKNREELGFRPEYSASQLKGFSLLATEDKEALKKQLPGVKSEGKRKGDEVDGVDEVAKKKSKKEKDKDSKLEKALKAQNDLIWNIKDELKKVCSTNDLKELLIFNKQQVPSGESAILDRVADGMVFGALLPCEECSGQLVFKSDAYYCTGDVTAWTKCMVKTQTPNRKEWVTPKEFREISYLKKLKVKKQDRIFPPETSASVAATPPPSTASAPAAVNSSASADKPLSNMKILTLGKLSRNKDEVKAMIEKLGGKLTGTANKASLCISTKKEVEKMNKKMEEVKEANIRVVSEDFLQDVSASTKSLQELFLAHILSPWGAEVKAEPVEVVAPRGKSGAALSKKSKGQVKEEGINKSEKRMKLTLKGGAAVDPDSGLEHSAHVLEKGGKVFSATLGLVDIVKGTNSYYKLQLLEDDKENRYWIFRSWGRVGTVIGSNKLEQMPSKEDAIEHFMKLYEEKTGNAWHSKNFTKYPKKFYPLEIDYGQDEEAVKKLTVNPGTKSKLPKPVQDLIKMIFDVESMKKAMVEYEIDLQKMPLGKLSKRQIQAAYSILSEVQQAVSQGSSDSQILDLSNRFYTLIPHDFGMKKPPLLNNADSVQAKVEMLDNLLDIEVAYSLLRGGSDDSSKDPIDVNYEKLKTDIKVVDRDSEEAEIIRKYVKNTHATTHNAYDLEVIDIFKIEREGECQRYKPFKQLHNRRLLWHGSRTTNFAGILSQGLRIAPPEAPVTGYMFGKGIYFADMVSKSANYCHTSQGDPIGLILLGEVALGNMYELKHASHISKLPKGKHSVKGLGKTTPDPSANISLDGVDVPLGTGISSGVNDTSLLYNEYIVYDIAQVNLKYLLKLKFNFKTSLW

Row | SMILES | IC50
1 | CN(C)CC#Cc1nc2c([nH]c(=O)c3ccccc32)s1 [Example 2, 2-[3-(Dimethylamino)prop-1-yn-1-yl][1,3]thiazolo[5,4-c]isoquinolin-5(4H)-one] | 414 nM
2 | C[C@@H]1CCC[C@H](C)N1Cc1nc2c([nH]c(=O)c3cccc(O)c32)s1 [Example 13, 2-{[(2R,6S)-2,6-Dimethylpiperidin-1-yl]methyl}-9-hydroxy[1,3]thiazolo[5,4-c]isoquinolin-5(4H)-one] | 1500 nM
3 | O=c1[nH]c2sc(CN3CCOCC3)nc2c2c(O)cccc12 [Example 5, 9-Hydroxy-2-(morpholin-4-ylmethyl)[1,3]thiazolo[5,4-c]isoquinolin-5(4H)-one] | 18.3 nM
4 | CN(C)Cc1nc2c([nH]c(=O)c3cccc(O)c32)s1 [Example 4, 2-((Dimethylamino)methyl)-9-hydroxythiazolo[5,4-c]isoquinolin-5(4H)-one] | 99 nM
5 | O=c1[nH]c2sc(CN3CCCCC3)nc2c2c(O)cccc12 [Example 6, 9-Hydroxy-2-(piperidin-1-ylmethyl)[1,3]thiazolo[5,4-c]isoquinolin-5(4H)-one] | 1370 nM
6 | CN(C)CCc1nc2c([nH]c(=O)c3ccccc32)s1 [Example 3, 2-(2-(Dimethylamino)ethyl)thiazolo[5,4-c]isoquinolin-5(4H)-one] | 358 nM
7 | CN(C)Cc1nc2c([nH]c(=O)c3ccccc32)s1 [Example 1, 2-[(Dimethylamino)methyl][1,3]thiazolo[5,4-c]isoquinolin-5(4H)-one hydrochloride] | 378 nM
8 | O=c1[nH]c2sc(CN3CCCC3)nc2c2c(O)cccc12 [Example 7, 9-Hydroxy-2-(pyrrolidin-1-ylmethyl)[1,3]thiazolo[5,4-c]isoquinolin-5(4H)-one] | 111 nM
9 | C[C@@H]1CN(Cc2nc3c([nH]c(=O)c4cccc(O)c43)s2)C[C@H](C)O1 [Example 10, 2-{[(2R,6S)-2,6-Dimethylmorpholin-4-yl]methyl}-9-hydroxy[1,3]thiazolo[5,4-c]isoquinolin-5(4H)-one] | 3090 nM
10 | O=c1[nH]c2sc(CN3CCC[C@@H]3C(F)(F)F)nc2c2c(O)cccc12 [Example 12, 9-Hydroxy-2-{[(2R)-2-(trifluoromethyl)pyrrolidin-1-yl]methyl}[1,3]thiazolo[5,4-c]isoquinolin-5(4H)-one] | 3500 nM
11 | CC1CCCN1Cc1nc2c([nH]c(=O)c3cccc(O)c32)s1 (stereo not shown) [Example 11, 9-Hydroxy-2-[(2-methylpyrrolidin-1-yl)methyl][1,3]thiazolo[5,4-c]isoquinolin-5(4H)-one] | 747 nM
12 | CN(C)[C@@H]1CCN(Cc2nc3c([nH]c(=O)c4cccc(O)c43)s2)C1 [Example 8, 2-{[(3R)-3-(dimethylamino)pyrrolidin-1-yl]methyl}-9-hydroxy[1,3]thiazolo[5,4-c]isoquinolin-5(4H)-one] | 223 nM
13 | O=c1[nH]c2sc(CN3CCCC4CCCCC43)nc2c2c(O)cccc12 (stereo not shown) [Example 9, 9-Hydroxy-2-(octahydroquinolin-1(2H)-ylmethyl)[1,3]thiazolo[5,4-c]isoquinolin-5(4H)-one] | 2450 nM
